Assay results reported in the supplement of paper PMC12463676, “Small-molecule dissolution of stress granules by redox modulation benefits ALS models” (Nature Chemical Biology, 2025).

Assays:
lipoamide = compound: NC(=O)CCCCC1CCSS1 [lipoamide]; assay: thermal stability z-score vs DMSO; higher = more thermally stabilized by treatment; settings: HeLa, lipoamide concentration 100 µM
Experimental: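 Cellular thermal proteome profiling in HeLa cells. Cells were treated with 100 µM lipoamide for 1 h, with or without 1 mM arsenate for a further 1 h, then heated to ten temperatures (37-66.3 °C), and soluble protein was quantified by TMT mass spectrometry relative to 0.1% DMSO controls. The thermal stability score (sum of log2 fold changes minus the abundance score) was transformed to a z-score; mean of n = 3 experiments.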

potassium arsenate = compound: O=[As]([O-])(O)O.[K+] [potassium arsenate]; assay: as above; settings: HeLa; arsenate concentration 1 mM
Experimental: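 Cellular thermal proteome profiling in HeLa cells treated with 1 mM arsenate for 1 h (DMSO pretreatment), heated to ten temperatures (37-66.3 °C). Soluble protein was quantified by TMT mass spectrometry relative to DMSO controls; the thermal stability score was transformed to a z-score; mean of n = 3 experiments.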

[1] = arsenate co-treatment: 1 mM arsenate 1 h
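Note: each temperature applied for 3 min, abundance score taken as mean log2 fold change at the two lowest temperatures, z-score obtained by mean subtraction and division by SD.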

Sequence of UniProt Q9C0C7 (Q9C0C7 whole entry): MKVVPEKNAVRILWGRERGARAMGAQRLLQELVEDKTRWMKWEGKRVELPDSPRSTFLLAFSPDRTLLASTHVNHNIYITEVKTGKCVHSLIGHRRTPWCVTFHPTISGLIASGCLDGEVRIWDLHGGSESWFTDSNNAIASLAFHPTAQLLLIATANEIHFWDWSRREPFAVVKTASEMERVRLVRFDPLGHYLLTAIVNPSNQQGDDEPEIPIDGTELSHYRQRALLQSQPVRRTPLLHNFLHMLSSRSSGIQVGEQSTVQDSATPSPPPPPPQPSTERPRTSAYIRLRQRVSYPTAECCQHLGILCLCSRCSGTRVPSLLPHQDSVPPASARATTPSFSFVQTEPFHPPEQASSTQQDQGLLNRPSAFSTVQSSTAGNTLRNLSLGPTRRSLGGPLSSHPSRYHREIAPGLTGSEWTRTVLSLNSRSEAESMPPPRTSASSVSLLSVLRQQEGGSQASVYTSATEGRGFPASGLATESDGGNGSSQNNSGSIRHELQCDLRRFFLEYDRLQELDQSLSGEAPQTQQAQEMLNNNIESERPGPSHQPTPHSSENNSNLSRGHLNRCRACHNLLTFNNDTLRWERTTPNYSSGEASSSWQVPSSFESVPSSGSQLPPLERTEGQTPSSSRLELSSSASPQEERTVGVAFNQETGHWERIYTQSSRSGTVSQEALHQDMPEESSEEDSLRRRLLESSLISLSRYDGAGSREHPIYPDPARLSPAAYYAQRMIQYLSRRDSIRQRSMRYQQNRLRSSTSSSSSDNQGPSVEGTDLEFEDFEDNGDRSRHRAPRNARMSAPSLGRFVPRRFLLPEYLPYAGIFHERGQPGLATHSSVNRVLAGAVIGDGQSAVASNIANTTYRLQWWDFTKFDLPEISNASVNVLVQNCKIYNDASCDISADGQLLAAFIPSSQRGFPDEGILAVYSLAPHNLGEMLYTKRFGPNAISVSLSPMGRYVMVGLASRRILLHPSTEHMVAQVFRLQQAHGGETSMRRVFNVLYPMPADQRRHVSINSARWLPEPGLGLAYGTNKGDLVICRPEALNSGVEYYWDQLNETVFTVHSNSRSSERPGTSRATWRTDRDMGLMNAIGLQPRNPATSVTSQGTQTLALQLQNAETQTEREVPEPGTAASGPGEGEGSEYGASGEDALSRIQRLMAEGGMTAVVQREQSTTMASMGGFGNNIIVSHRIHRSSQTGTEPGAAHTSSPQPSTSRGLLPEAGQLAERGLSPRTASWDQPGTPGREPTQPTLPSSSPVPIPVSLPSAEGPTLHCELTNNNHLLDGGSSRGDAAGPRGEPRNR
Sequence of UniProt Q9Y303 (Q9Y303 whole entry): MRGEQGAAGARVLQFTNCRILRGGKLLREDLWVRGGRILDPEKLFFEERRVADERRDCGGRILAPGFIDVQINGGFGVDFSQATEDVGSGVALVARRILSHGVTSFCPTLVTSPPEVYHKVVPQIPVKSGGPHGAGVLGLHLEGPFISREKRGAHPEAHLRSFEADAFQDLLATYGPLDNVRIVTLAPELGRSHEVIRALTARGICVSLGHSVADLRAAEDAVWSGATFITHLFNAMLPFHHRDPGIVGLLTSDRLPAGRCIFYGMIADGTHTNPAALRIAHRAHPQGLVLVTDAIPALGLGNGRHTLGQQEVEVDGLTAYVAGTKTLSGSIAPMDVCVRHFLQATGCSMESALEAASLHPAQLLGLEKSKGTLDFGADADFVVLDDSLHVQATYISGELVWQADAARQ
Sequence of UniProt Q9P2R3 (Q9P2R3 whole entry): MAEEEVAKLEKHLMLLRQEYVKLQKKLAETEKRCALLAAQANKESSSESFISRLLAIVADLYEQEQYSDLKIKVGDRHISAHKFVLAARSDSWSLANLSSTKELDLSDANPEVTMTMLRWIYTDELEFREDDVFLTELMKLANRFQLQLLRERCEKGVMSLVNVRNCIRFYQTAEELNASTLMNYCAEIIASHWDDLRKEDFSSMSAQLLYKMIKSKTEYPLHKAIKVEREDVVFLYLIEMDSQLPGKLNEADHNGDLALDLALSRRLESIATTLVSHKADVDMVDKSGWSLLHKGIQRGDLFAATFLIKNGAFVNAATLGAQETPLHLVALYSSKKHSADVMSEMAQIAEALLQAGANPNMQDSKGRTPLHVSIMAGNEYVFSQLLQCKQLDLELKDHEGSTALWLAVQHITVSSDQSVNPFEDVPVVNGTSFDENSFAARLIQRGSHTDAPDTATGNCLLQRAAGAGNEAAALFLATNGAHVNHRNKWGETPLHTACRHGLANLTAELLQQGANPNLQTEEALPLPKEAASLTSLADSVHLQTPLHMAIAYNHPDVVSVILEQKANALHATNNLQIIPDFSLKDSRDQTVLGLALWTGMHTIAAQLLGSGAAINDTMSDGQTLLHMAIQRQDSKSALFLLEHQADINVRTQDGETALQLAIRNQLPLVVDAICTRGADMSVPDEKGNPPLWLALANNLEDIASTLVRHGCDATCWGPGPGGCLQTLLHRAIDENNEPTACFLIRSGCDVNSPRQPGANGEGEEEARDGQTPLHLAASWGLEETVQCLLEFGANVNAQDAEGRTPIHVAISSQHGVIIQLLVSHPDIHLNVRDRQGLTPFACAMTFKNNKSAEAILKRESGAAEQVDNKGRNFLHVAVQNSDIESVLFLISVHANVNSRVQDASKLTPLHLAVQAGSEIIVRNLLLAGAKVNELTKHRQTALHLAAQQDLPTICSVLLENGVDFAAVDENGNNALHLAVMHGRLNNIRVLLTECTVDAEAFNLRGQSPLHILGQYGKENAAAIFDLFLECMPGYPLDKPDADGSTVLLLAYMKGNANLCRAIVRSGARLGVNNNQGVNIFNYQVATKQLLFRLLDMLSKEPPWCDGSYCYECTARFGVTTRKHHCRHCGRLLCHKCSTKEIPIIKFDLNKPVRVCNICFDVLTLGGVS
Sequence of UniProt Q9BXS5 (Q9BXS5 whole entry): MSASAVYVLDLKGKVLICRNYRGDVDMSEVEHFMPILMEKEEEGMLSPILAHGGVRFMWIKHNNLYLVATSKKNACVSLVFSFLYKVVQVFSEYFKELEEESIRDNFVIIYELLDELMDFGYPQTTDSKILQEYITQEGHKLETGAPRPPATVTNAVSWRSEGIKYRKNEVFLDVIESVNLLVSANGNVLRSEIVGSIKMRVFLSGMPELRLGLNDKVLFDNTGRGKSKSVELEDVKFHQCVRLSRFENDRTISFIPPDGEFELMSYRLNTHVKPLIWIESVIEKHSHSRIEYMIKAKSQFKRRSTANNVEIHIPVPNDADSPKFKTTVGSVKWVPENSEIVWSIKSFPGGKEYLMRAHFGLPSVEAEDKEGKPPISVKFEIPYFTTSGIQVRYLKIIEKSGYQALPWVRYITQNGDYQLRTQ
Sequence of UniProt Q92625 (Q92625 whole entry): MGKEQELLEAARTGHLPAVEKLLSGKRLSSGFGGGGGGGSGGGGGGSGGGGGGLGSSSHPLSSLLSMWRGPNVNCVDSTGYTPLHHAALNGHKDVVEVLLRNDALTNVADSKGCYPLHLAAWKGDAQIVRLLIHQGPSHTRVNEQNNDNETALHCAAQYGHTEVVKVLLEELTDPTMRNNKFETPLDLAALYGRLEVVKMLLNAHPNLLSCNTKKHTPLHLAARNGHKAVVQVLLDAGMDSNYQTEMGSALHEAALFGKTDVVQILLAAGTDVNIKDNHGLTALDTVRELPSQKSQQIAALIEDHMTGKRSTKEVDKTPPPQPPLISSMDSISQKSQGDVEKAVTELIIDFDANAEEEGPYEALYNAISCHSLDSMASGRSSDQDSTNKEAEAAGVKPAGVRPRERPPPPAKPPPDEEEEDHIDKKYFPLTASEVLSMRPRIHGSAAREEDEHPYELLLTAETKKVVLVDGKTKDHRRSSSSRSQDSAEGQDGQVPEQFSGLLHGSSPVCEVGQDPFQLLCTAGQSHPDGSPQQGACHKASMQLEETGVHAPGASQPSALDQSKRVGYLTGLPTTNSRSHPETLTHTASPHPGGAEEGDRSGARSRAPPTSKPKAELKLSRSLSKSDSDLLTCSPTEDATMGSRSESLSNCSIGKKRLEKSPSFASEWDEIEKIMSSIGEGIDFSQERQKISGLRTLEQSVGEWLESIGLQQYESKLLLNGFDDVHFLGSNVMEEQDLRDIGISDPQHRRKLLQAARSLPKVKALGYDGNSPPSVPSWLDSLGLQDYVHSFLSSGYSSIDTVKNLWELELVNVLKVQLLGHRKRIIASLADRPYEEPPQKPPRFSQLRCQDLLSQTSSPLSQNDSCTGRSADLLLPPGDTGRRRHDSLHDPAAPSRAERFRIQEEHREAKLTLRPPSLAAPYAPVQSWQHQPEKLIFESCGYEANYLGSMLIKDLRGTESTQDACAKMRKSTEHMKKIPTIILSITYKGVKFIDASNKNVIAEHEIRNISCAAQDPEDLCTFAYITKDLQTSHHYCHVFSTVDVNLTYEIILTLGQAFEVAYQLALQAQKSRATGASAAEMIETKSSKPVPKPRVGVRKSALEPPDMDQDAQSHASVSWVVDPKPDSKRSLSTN
Sequence of UniProt P50995 (P50995 whole entry): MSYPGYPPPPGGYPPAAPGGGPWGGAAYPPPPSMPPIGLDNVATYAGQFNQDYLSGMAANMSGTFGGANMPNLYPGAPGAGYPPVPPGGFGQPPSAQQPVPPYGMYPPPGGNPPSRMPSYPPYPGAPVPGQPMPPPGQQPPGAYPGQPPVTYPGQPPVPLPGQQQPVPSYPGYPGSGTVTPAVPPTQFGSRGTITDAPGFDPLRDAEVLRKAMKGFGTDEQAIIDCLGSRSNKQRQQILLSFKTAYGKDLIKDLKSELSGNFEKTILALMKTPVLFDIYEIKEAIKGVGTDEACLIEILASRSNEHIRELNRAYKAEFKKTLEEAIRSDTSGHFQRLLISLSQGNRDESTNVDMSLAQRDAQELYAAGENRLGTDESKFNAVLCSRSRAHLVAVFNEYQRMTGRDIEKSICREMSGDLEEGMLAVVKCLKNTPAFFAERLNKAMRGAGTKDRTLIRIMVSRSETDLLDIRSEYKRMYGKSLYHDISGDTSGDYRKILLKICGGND

Row | Target | thermal stability z-score (lipoamide; [1]) | thermal stability z-score (lipoamide; arsenate co-treatment: none) | thermal stability z-score (potassium arsenate)
1 | ALKBH5 (UniProt Q6P6C2) | 1.79 | -0.205 | 2.96
2 | ALKBH6 (UniProt Q3KRA9) | 0.205 | 0.0821 | 3.15
3 | ALYREF (UniProt Q86V81) | 0.585 | 0.0941 | -0.0562
4 | AMACR (UniProt Q9UHK6) | 0.683 | -0.138 | 0.504
5 | AMBRA1 (UniProt Q9C0C7) | 0.0433 | 0.0956 | 0.446
6 | AMD1 (UniProt P17707) | 0.96 | 0.512 | -0.105
7 | AMDHD2 (UniProt Q9Y303) | 0.0258 | 0.186 | 1.3
8 | AMFR (UniProt Q9UKV5) | -0.269 | -0.845 | 0.444
9 | AMMECR1 (UniProt Q9Y4X0) | -0.157 | -0.0642 | -0.217
10 | AMPD2 (UniProt Q01433) | 0.297 | -0.25 | 0.172
11 | AMZ2 (UniProt Q86W34) | 0.33 | -0.032 | 0.211
12 | ANAPC1 (UniProt Q9H1A4) | 0.11 | 0.139 | 0.0453
13 | ANAPC2 (UniProt Q9UJX6) | -0.312 | -0.0871 | 0.093
14 | ANAPC4 (UniProt Q9UJX5) | -0.529 | -0.278 | -1.3
15 | ANAPC5 (UniProt Q9UJX4) | 0.0562 | -0.0827 | -0.0639
16 | ANAPC7 (UniProt Q9UJX3) | 0.306 | 0.186 | 0.251
17 | ANAPC10 (UniProt Q9UM13) | 0.0276 | -0.149 | -0.183
18 | ANGEL2 (UniProt Q5VTE6) | -0.111 | -0.19 | -0.0197
19 | ANKFY1 (UniProt Q9P2R3) | 0.069 | 0.106 | 0.477
20 | ANKHD1 (UniProt Q8IWZ3) | -0.133 | -0.523 | 0.37
21 | ANKLE2 (UniProt Q86XL3) | -1.08 | -0.166 | 0.76
22 | ANKMY2 (UniProt Q8IV38) | 0.0659 | 0.00957 | 0.0818
23 | ANKRD13A (UniProt Q8IZ07) | 0.0649 | -0.0472 | -0.0666
24 | ANKRD17 (UniProt O75179) | -0.568 | -0.123 | -0.27
25 | ANKRD27 (UniProt Q96NW4) | -0.025 | -0.0854 | -0.276
26 | ANKRD28 (UniProt O15084) | -0.25 | -0.0938 | -0.209
27 | ANKRD40 (UniProt Q6AI12) | 0.246 | 0.087 | 0.146
28 | ANKRD44 (UniProt Q8N8A2) | -0.00602 | -0.323 | -0.0202

Row | Target | thermal stability z-score (lipoamide; [1]) | thermal stability z-score (lipoamide; arsenate co-treatment: none) | thermal stability z-score (potassium arsenate)
29 | ANKRD50 (UniProt Q9ULJ7) | -0.124 | 0.078 | 0.0328
30 | ANKRD52 (UniProt Q8NB46) | -0.69 | -0.0975 | -0.372
31 | ANKRD54 (UniProt Q6NXT1) | -0.042 | -0.267 | -0.49
32 | ANKS1A (UniProt Q92625) | -0.553 | 0.198 | 0.294
33 | ANKZF1 (UniProt Q9H8Y5) | 0.373 | 0.0149 | 0.0789
34 | ANLN (UniProt Q9NQW6) | 0.066 | 0.0787 | -1.45
35 | ANO6 (UniProt Q4KMQ2) | -0.102 | -0.0242 | -0.286
36 | ANO10 (UniProt Q9NW15) | -0.0281 | -0.122 | -0.262
37 | ANP32A (UniProt P39687) | 0.324 | 0.51 | 0.197
38 | ANP32B (UniProt Q92688) | -0.711 | -0.129 | -0.513
39 | ANP32E (UniProt Q9BTT0) | -1.1 | 0.32 | -4
40 | ANTXR1 (UniProt Q9H6X2) | 0.0337 | -0.146 | 0.283
41 | ANXA1 (UniProt P04083) | 0.957 | 0.83 | -0.37
42 | ANXA2 (UniProt P07355) | 1.59 | 1.79 | 0.066
43 | ANXA3 (UniProt P12429) | 0.902 | 0.504 | 0.227
44 | ANXA4 (UniProt P09525) | 1.42 | 1.61 | 0.225
45 | ANXA5 (UniProt P08758) | 1.34 | 1.22 | 0.601
46 | ANXA6 (UniProt P08133) | 3.2 | 3.6 | 2.15
47 | ANXA7 (UniProt P20073) | 1.98 | 1.08 | 0.966
48 | ANXA8L1 (UniProt Q5VT79) | -0.11 | -0.0845 | 0.00565
49 | ANXA11 (UniProt P50995) | 3.8 | 3.23 | 1.77
50 | AP1B1 (UniProt Q10567) | 0.216 | 0.0123 | 0.425
51 | AP1G1 (UniProt O43747) | -0.704 | -0.404 | 0.813
52 | AP1G2 (UniProt O75843) | 0.17 | 0.114 | 0.167
53 | AP1M1 (UniProt Q9BXS5) | 0.126 | -0.43 | 0.791
54 | AP1S1 (UniProt P61966) | -0.264 | -0.339 | 0.802
55 | AP2A1 (UniProt O95782) | -0.0653 | 0.3 | 1.19
